Columns and labels:
SARS-CoV-2 replicon = test: microbe, parasite or virus in culture; assay type: cell-based; conditions: Severe acute respiratory syndrome coronavirus 2, Huh-7
[1] = target: SARS-CoV-2 Papain-like (PLpro) protease (Severe acute respiratory syndrome coronavirus 2, UniProt P0DTD1); test: SARS-CoV-2 Papain-like (PLpro) protease biochemical enzyme inhibition assay (ubiquitin-fluorophore substrate, Ub-R110); conditions: Ub-R110 substrate; run in duplicate; read-out: PLpro IC50

Compound	EC50 (SARS-CoV-2 replicon) [nM]	IC50 [1] [nM]
N#CCNC(=O)C(=O)NCc1ccccc1C(=O)NC1(c2cccc(-c3cccs3)c2Cl)CC1 [Example 382]	1000 to 10000	< 100
C#CCNC(=O)C(=O)NCc1ccccc1C(=O)NC1(c2cccc(-c3cccs3)c2Cl)CC1 [Example 383]	< 1000	< 100
C#CCNC(=O)C(=O)NCc1ccccc1C(=O)NC1(c2cc(-c3cnn(C4CC4)c3)ccc2Cl)CC1 [Example 384]	< 1000	< 100
O=C(NCC#Cc1nccs1)C(=O)NCc1ccccc1C(=O)NC1(c2cccc(-c3cnn(C4CC4)c3)c2Cl)CC1 [Example 385]	< 1000	< 100
N#CCNC(=O)C(=O)NCc1ccccc1C(=O)NC1(c2cccc3nc(Cl)ccc23)CC1 [Example 386]	< 1000	< 100
C#CCNC(=O)C(=O)NCc1ccccc1C(=O)NC1(c2cccc3nc(Cl)ccc23)CC1 [Example 387]	< 1000	< 100
O=C(NCC#Cc1nccs1)C(=O)NCc1ccccc1C(=O)NC1(c2ccnc3ccccc23)CC1 [Example 392]	1000 to 10000	< 100
O=C(NCC#Cc1nccs1)C(=O)NCc1ccccc1C(=O)NC1(c2cnc3ccccc3c2)CC1 [Example 393]	1000 to 10000	< 100
O=C(NCC#Cc1nccs1)C(=O)NCc1ccccc1C(=O)NC1(c2cc3ccccc3cn2)CC1 [Example 394]	< 1000	< 100
O=C(NCC#Cc1nccs1)C(=O)NCc1ccccc1C(=O)NC1(c2ccc3nc(C4CC4)ccc3c2)CC1 [Example 396]	< 1000	< 100
Cn1cnc(C#CCNC(=O)C(=O)NCc2ccccc2C(=O)NC2(c3ccc4ccccc4c3)CC2)n1 [Example 398]	< 1000	< 100
O=C(NCC#Cc1nccs1)C(=O)NCc1ccccc1C(=O)NC1(c2ccn3nccc3c2)CC1 [Example 399]	< 1000	< 100
C[C@@H](C#Cc1nccs1)NC(=O)C(=O)NCc1ccccc1C(=O)NC1(c2ccnc3c2ccn3C2CC2)CC1 [Example 402]	< 1000	< 100
CC(C)c1cccnc1C#CCNC(=O)C(=O)NCc1ccccc1C(=O)NC1(c2ccc3ccccc3c2)CC1 [Example 404]	< 1000	< 100
N#CCNC(=O)C(=O)NCc1ccccc1C(=O)NC1(c2cn(-c3cnn(C4CC4)c3)c3ncccc23)CC1 [Example 409]	1000 to 10000	< 100
COc1cc(C2(NC(=O)c3ccccc3CNC(=O)C(=O)NCC#N)CC2)c2cccnc2c1 [Example 411]	1000 to 10000	< 100
N#CCNC(=O)C(=O)NCc1ccccc1C(=O)NC1(c2cc(-c3cnn(C4CC4)c3)nc3c2ccn3C2CC2)CC1 [Example 413]	< 1000	< 100
N#CCNC(=O)C(=O)NCc1ccccc1C(=O)NC1(c2cc(-c3cnn(C4CC4)c3)cc3ncccc23)CC1 [Example 415]	1000 to 10000	< 100
C=C(C)c1ccc(-c2cc(C3(NC(=O)c4ccccc4CNC(=O)[C@H]4CCN(C#N)C4)CC3)c3ccccc3c2)s1 [Example 418]	< 1000	< 100
N#CN1CC[C@H](C(=O)NCc2ccccc2C(=O)NC2(c3cc(-c4cnn(C5CC5)c4)cc4ncccc34)CC2)C1 [Example 419]	< 1000	< 100

Compound	EC50 (SARS-CoV-2 replicon) [nM]	IC50 [1] [nM]
N#CCNC(=O)C(=O)NCc1ccccc1C(=O)NC1(c2ccnc3cc(Cl)ccc23)CC1 [Example 423]	1000 to 10000	< 100
CC(C)(O)CCc1cc(C2(NC(=O)c3ccccc3CNC(=O)C(=O)NCC#N)CC2)c2ccccc2c1 [Example 424]	1000 to 10000	< 100
N#CCNC(=O)C(=O)NCc1ccccc1C(=O)NC1(c2cc(-c3cnn[nH]3)cc3ccccc23)CC1 [Example 425]	< 1000	< 100
COC(=O)Cn1cc(-c2cc(C3(NC(=O)c4ccccc4CNC(=O)C(=O)NCC#N)CC3)c3ccccc3c2)nn1 [Example 426]	1000 to 10000	< 100
N#CCNC(=O)C(=O)NCc1ccccc1C(=O)NC1(c2cc(-c3cn(-c4ccccn4)nn3)cc3ccccc23)CC1 [Example 427]	< 1000	< 100
CN1C(=O)c2cccc3c(C4(NC(=O)c5ccccc5CNC(=O)C(=O)NCC#N)CC4)ccc1c23 [Example 428]	1000 to 10000	< 100
CC1(CNC(=O)C(=O)NCc2ccccc2C(=O)NC2(c3cccc4ccccc34)CC2)CN(C#N)C1 [Example 429]	< 1000	< 100
N#CN1CC(CNC(=O)C(=O)NCc2ccccc2C(=O)NC2(c3cc(F)cc(-c4cnn(C5CC5)c4)c3)CC2)C1 [Example 431]	1000 to 10000	100 to 1000
Cn1cc2cc(C3(NC(=O)c4ccccc4CNC(=O)C(=O)NCC4CN(C#N)C4)CC3)ccc2n1 [Example 432]	1000 to 10000	100 to 1000
N#CCNC(=O)C(=O)NCc1ccccc1C(=O)NC1(c2ccc3c4c(cccc24)C(=O)N3)CC1 [Example 434]	1000 to 10000	< 100
N#CN1CC(CNC(=O)C(=O)NCc2ccccc2C(=O)NC2(c3cccc4ccccc34)CC2)C1 [Example 435]	< 1000	< 100
N#C/C=C/CNC(=O)C(=O)NCc1ccccc1C(=O)NC1(c2ccc3c4c(cccc24)CC3)CC1 [Example 438]	< 1000	< 100
N#CCNC(=O)C(=O)NCc1ccccc1C(=O)NC1(c2ccc3c4c(cccc24)CC3)CC1 [Example 439]	< 1000	< 100
O=C(NCC#Cc1nccs1)C(=O)NCc1ccccc1C(=O)NC1(c2ccc3c4c(cccc24)CC3)CC1 [Example 440]	< 1000	< 100
C#CCNC(=O)C(=O)NCc1ccccc1C(=O)NC1(c2ccc3c4c(cccc24)CC3)CC1 [Example 441, N1-(2-((1-(1,2-dihydroacenaphthylen-5-yl)cyclopropyl)carbamoyl)benzyl)-N2-(prop-2-yn-1-yl)oxalamide]	< 1000	< 100
O=C(NCC#Cc1nccs1)C(=O)NCc1ccccc1C(=O)NC1(c2cc(Cl)cc(-c3ccccc3F)c2)CC1 [Example 442]	< 1000	< 100
O=C(NCC#Cc1nccs1)C(=O)NCc1ccccc1C(=O)NC1(c2cc(Cl)cc(-c3cc4ccccc4s3)c2)CC1 [Example 443]	< 1000	< 100
C#CCNC(=O)C(=O)NCc1ccccc1C(=O)NC1(c2cc(Cl)cc(-c3ccccc3F)c2)CC1 [Example 444]	< 1000	< 100
C#CCNC(=O)C(=O)NCc1ccccc1C(=O)NC1(c2cc(Cl)cc(-c3cc4ccccc4s3)c2)CC1 [Example 445]	1000 to 10000	< 100
O=C(NCC#Cc1nccs1)C(=O)NCc1ccccc1C(=O)NC1(c2cc(Cl)cc(-c3cncs3)c2)CC1 [Example 446]	< 1000	< 100

Compound	EC50 (SARS-CoV-2 replicon) [nM]	IC50 [1] [nM]
C#CCNC(=O)C(=O)NCc1ccccc1C(=O)NC1(c2cc(Cl)cc(-c3cncs3)c2)CC1 [Example 447]	< 1000	< 100
N#CCNC(=O)C(=O)NCc1ccccc1C(=O)NC1(c2cc(Cl)cc(-c3cncs3)c2)CC1 [Example 448]	1000 to 10000	< 100
O=C(NCC#Cc1nccs1)C(=O)NCc1ccccc1C(=O)NC1(c2cc(Cl)cc(-c3cnco3)c2)CC1 [Example 449]	< 1000	< 100
C#CCNC(=O)C(=O)NCc1ccccc1C(=O)NC1(c2cc(Cl)cc(-c3cnco3)c2)CC1 [Example 450]	< 1000	< 100
N#CCNC(=O)C(=O)NCc1ccccc1C(=O)NC1(c2cc(Cl)cc(-c3cnco3)c2)CC1 [Example 451]	1000 to 10000	< 100
N#CCNC(=O)C(=O)NCc1ccccc1C(=O)NC1(c2cc(-c3cccs3)cc(-c3cccs3)c2)CC1 [Example 452]	1000 to 10000	< 100
C#CCNC(=O)C(=O)NCc1ccccc1C(=O)NC1(c2cc(Cl)cc(-c3cnn(C4CC4)c3)c2)CC1 [Example 453]	< 1000	< 100
N#CCNC(=O)C(=O)NCc1ccccc1C(=O)NC1(c2cc(Cl)cc(-c3cnn(C4CC4)c3)c2)CC1 [Example 454]	1000 to 10000	< 100
N#CCNC(=O)C(=O)NCc1ccccc1C(=O)NC1(c2cc(Cl)cc(Br)c2)CC1 [Example 455]	> 10000	100 to 1000
N#CCNC(=O)C(=O)NCc1ccccc1C(=O)NC1(c2cc(Cl)cc(-c3cnn(C(F)F)c3)c2)CC1 [Example 456]	1000 to 10000	< 100
C[C@@H](NC(=O)c1ccccc1CNC(=O)C(=O)NCC#N)c1cc(-c2cnn(C3CC3)c2)cc(C(F)(F)F)c1 [Example 458]	< 1000	< 100
COC(=O)/C=C/CNC(=O)C(=O)NCc1ccccc1C(=O)N[C@H](C)c1cc(-c2cnn(C3CC3)c2)cc(C(F)(F)F)c1 [Example 459]	1000 to 10000	< 100
C[C@@H](NC(=O)c1ccccc1CNC(=O)C(=O)NCC#N)c1cc(-c2cccs2)cc(C(F)(F)F)c1 [Example 460]	< 1000	< 100
COC(=O)/C=C/CNC(=O)C(=O)NCc1ccccc1C(=O)N[C@H](C)c1cc(-c2cccs2)cc(C(F)(F)F)c1 [Example 461]	< 1000	< 100
COC(=O)/C=C/CNC(=O)C(=O)NCc1ccccc1C(=O)N[C@H](C)c1cc(-c2cnn(C(F)F)c2)cc(C(F)(F)F)c1 [Example 462]	< 1000	< 100
C[C@@H](NC(=O)c1ccccc1CNC(=O)C(=O)NCC#N)c1cc(-c2cnn(C(F)F)c2)cc(C(F)(F)F)c1 [Example 463]	1000 to 10000	100 to 1000
C[C@@H](NC(=O)c1ccccc1CNC(=O)C(=O)NCC#N)c1cc(-c2ccoc2)cc(C(F)(F)F)c1 [Example 464]	1000 to 10000	< 100
COC(=O)/C=C/CNC(=O)C(=O)NCc1ccccc1C(=O)N[C@H](C)c1cc(-c2ccoc2)cc(C(F)(F)F)c1 [Example 465]	< 1000	< 100

— US20240327334A1, “Covalent Inhibitors As Antiviral Agents” (Enanta Pharmaceuticals, Inc., priority 2022, published 2024)
